Test results reported in patent US4197310A, “Thiophenepropionitriles” (American Cyanamid Company, priority 1979, dated 1980).

Assays:
[1] = system: Carrageenin-Induced Edema; experiment: Carrageenin-induced edema in the rat; type: in vivo, rat (Royal Hart, Wistar strain); settings: oral gavage, 5 hours after drug, 4 hours after carrageenin, dose not given, * p = <.05 by t test
Protocol: (A) Carrageenin-induced edema in the rat
In determining the acute anti-inflammatory activity of the cis-2-[2(or 3)-thenoyl]-3-hydroxy-2-alkenenitriles of the present invention, Royal Hart, Wistar strain rats, ranging in weight from 80 to 90 grams were used. The rats were fasted overnight prior to dosing but had free access to water. The test compounds were administered in aqueous suspension, by gavage, in a volume of 1.7 ml. per 50 grams of rat [corresponds to hydration volume used by Winter, et al., Proc. Soc. […] The phlogistic agent used was carrageenin prepared as a sterile 1% suspension in 0.9% aqueous sodium chloride for routine testing. A volume of 0.05 ml. was injected through a 26 gauge needle into the plantar tissue of the right hind paw. Measurements were made 5 hours after drug administration (4 hours after carrageenin challenge). Volumes of both the normal and carrageenin inflammed feet were determined. The difference between the two measurements is considered to be the increased edema due to the carrageenin administration. Results are expressed as a C/T efficacy ratio (edema of control animals/edema of treated animals).

[2] = system: Adjuvant Induced Arthritis in Rats; experiment: Adjuvant-induced arthritis in the rat; type: in vivo, rat (Royal Hart, Wistar strain)
Protocol: (B) Adjuvant-induced arthritis in the rat […] Groups of three Royal Hart, Wistar strain rats weighing 200±10 g. each were injected intradermally in the right hind paw with Freund's adjuvant (dried human tubercle bacilli in a mineral oil vehicle) at a dose of 2 mg./kg. of body weight. The test compounds were administered orally in a 1.5% starch vehicle at various doses once daily on days 0 to 13 post challenge. Control rats were treated in a similar manner, but given only starch vehicle. On the 14th and 21st day post challenge the diameter of the injected paw was measured by micrometer caliper. The volume of inflamed paws were estimated from these measurements and the effects of each compound are expressed as percent inhibition of swelling as compared to controls. Table II records the results of these tests conducted with representative compounds of this invention and known anti-inflammatory agents. The active compounds of this invention suppress the progression of the arthritis and associated joint deterioration.

[3] = oral 50 mg./kg. daily days 0 to 13, * (where printed) p = <.05 by t test
[4] = oral 50 mg./kg. daily days 0 to 13, no asterisk
[5] = oral 25 mg./kg. daily days 0 to 13, * p = <.05 by t test

Row | Structure (SMILES) | C/T Ratio (edema of control animals/edema of treated animals) [1] | % Inhibition of Swelling, Day 14 [2, 3] [%] | % Inhibition of Swelling, Day 21 [2, 4] [%] | % Inhibition of Swelling, Day 14 [2, 5] [%] | % Inhibition of Swelling, Day 21 [2, 5] [%]
1 | C/C(O)=C(\C#N)C(=O)c1ccsc1 [Cis-2-(3-thenoyl)-3-hydroxycrotononitrile] | 2.42 | 38 | 19 | – | –
2 | C/C(O)=C(\C#N)C(=O)c1cccs1 [Cis-2-(2-thenoyl)-3-hydroxycrotononitrile] | 2.04 | 42 | 6 | – | –
3 | C/C(O)=C(\C#N)C(=O)c1ccc(Cl)s1 [Cis-2-(5-chloro-2-thenoyl)-3-hydroxycrotononitrile] | – | – | – | 49 | 31
